Assay [1] deals with α-MSH receptor. The experiment in a line: Frog melanocyte assay, pigment dispersion (agonist mode) in wild type melanophores. The format is cell-based, Xenopus laevis. Particulars: for pigment dispersion (result in words): α-MSH-ANT dimer: at higher concentrations (FIG. 6); for EC50: FIG. 4. The procedure: Frog Melanocyte Assay. Xenopus laevis melanophores were maintained in culture as described by M. Engel et al., Biochemistry 30, 3161-3169 (1991); C. A. Slate et al., Int. J. Peptide Protein Res. 45, 290-298 (1995); and C. Plank et al., J. Biol. Chem. 269, 12918-12924 (1994). Transient expression of bombesin receptor plasmid DNA (pJG3.6BR) in melanophores was achieved by electroporation (C. A. Slate et al., Int. J. Peptide Protein Res. 45, 290-298 (1995)). Melanophores were plated (15,000 per well) on 96 well tissue culture plates (Falcon), and time and dose-response curves were obtained by microtiter plate assays (R. Duncan et al., Clin. Pharmacokinet. 27, 290-306 (1994); M. Engel et al., Biochemistry 30, 3161-3169 (1991); C. A. Slate et al., Int. J. Peptide Protein Res. 45, 290-298 (1995); C. Plank et al., J. Biol. Chem. 269, 12918-12924 (1994); and P. M. Conn et al., Endocrinology 111, 335-337 (1982)). Prior to addition of monomers or dimers, cells were washed and then incubated for one hour with 0.7× L15 media supplemented with 1 nM melatonin. […] Monomers or dimers were added to the microtiter wells in 20 μl aliquots at 10 times their final concentration. For IC50 curves, the media also was supplemented with 5 nM α-MSH.
Phototransmission was measured at 620 nm using a 340 ATTC microtiter plate reader (SLT Lab Instruments). Transmission readings were taken 1 hour following the addition of melatonin (Ti), and monomers or dimers were added immediately. Additional readings (Tf) were made at various time points (5-60 min). Data was curve fitted by nonlinear regression with y=1−(Tf/Ti). The final data was normalized and expressed as a percentage of maximal pigment dispersion (ymax).
For this study, a rapid, functional assay for G-protein-coupled receptors in frog melanophore cells (C. K. Jayawickreme et al., J. Biol. Chem. 269, 29846-29854 (1994); M. N. Potenza et al., Anal. Biochem. 206, 315-322 (1992); G. F. Graminski et al., J. Biol. Chem. 268, 5957-5964 (1993); S. Karne et al., J. Biol. Chem. 268, 19126-19133 (1993); and C. K. Jayawickreme et al., Proc. Natl. Acad. Sci. USA 91, 1614-1618 (1994)) was used. In frog melanocyte cells, ligands like α-MSH that mediate increases in cellular cyclic AMP levels, or like endothelin 3 that stimulate PI metabolism (S. Karne et al., J. Biol. Chem. 268, 19126-19133 (1993)), cause pigment dispersion and cell darkening, whereas inhibitors of cyclic AMP synthesis, like melatonin, cause pigment aggregation and cell lightening. In this study, the effect of monomeric and dimeric peptides on pigment dispersion was determined.
Wild type melanophores were used for assays involving α-MSH and α-MSH-ANT monomers and dimers. Melanophores that were transfected with a plasmid that contained the bombesin receptor coding region were used for assays involving bombesin monomer and dimer (G. F. Graminski et al., J. Biol. Chem. 268, 5957-5964 (1993); and C. K. Jayawickreme et al., Proc. Natl. Acad. Sci. USA 91, 1614-1618 (1994)).

For assay [2], the target named is α-MSH receptor. The experiment in a line: Frog melanocyte assay, inhibition of α-MSH (5 nM) mediated pigment dispersion in wild type melanophores. The format is cell-based, Xenopus laevis. As to conditions: 5 nM α-MSH, t=30 min, FIG. 5. Here is the method: Frog Melanocyte Assay. Xenopus laevis melanophores were maintained in culture as described by M. Engel et al., Biochemistry 30, 3161-3169 (1991); C. A. Slate et al., Int. J. Peptide Protein Res. 45, 290-298 (1995); and C. Plank et al., J. Biol. Chem. 269, 12918-12924 (1994). Transient expression of bombesin receptor plasmid DNA (pJG3.6BR) in melanophores was achieved by electroporation (C. A. Slate et al., Int. J. Peptide Protein Res. 45, 290-298 (1995)). […]
Phototransmission was measured at 620 nm using a 340 ATTC microtiter plate reader (SLT Lab Instruments). Transmission readings were taken 1 hour following the addition of melatonin (Ti), and monomers or dimers were added immediately. Additional readings (Tf) were made at various time points (5-60 min). […] The final data was normalized and expressed as a percentage of maximal pigment dispersion (ymax).
For this study, a rapid, functional assay for G-protein-coupled receptors in frog melanophore cells (C. K. Jayawickreme et al., J. Biol. Chem. 269, 29846-29854 (1994); M. N. Potenza et al., Anal. Biochem. 206, 315-322 (1992); G. F. Graminski et al., J. Biol. Chem. 268, 5957-5964 (1993); S. Karne et al., J. Biol. Chem. 268, 19126-19133 (1993); and C. K. Jayawickreme et al., Proc. Natl. Acad. Sci. USA 91, 1614-1618 (1994)) was used. […] In this study, the effect of monomeric and dimeric peptides on pigment dispersion was determined. […]

[3] abbreviates: wild type melanophores, t=30 min.

The term IC50 denotes the concentration needed to halve the response being measured. “MPdFRdWFKPV-GGGεAhx-K(20)-βAla [α-MSH-ANT monomer, assay monomer lacking cysteine]”: in assay [1] (below 1 μM, absence of α-MSH), the “stimulation of dispersion below a concentration of 1 μM” value is listed as “did not stimulate dispersion”. The “pigment dispersion (result in words)” value in assay [1] (wild type melanophores) was “No significant dispersion”. In assay [2], this substance registered a concentration for half-maximal inhibition (IC50) of 120 ± 6 nM.

A word on the EC50: it is the concentration at which the effect is half-maximal. Low values mean an effect from little substance, high ones a need for much substance. As to “SYSMEHFRWGKPV-GGG-εAhx-K(20)-βAla [α-MSH monomer]”, in assay [1] (setting [3]), a half-maximal response (EC50) required 372 ± 18 nM. Besides, in assay [1] (wild type melanophores), the “pigment dispersion (result in words)” value was “stimulated dispersion in a time and dose-dependent manner”.

“homodimer: ligand domains SYSMEHFRWGKPV-, spacer GGG-εAhx, K(20), two disulfide-linked cysteines end capped at C-termini with β-alanine [α-MSH dimer]”: in assay [1] (setting [3]), the “EC50 of dimer lower as compared to the monomer (fold)” value is “approximately 5 fold” and the concentration for a half-maximal effect (EC50) was found to be 72.5 ± 5 nM. For the same substance, the “pigment dispersion (result in words)” value in assay [1] (wild type melanophores) was “stimulated dispersion in a time and dose-dependent manner”.

For the origin of these results see patent publication US6500934B1, “Bivalent agonists for G-protein coupled receptors” (priority 1996, dated 2002).
